Laboratory results from ChEMBL document CHEMBL1201862, “PubChem BioAssay data set” (2004).
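Compound exposure: 48 hours, 5 concentrations, 96-well plates. Here, GI50 denotes the concentration required for 50% inhibition of growth.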 Active and inactive are the calls of the source. No stated cut-off is given here; in the data, active = GI50 up to about 1.1 µM and inactive = higher.

Tests used:
Assay in all cases: NCI-60 cell line screen, 48 h
TK-10 = system: TK-10
786-0 = system: 786-0
CCRF-CEM = system: CCRF-CEM
T47D = system: T47D
DU-145 = system: DU-145
Malme-3M = system: Malme-3M
LOX IMVI = system: LOX IMVI
HCT-116 = system: HCT-116
OVCAR-8 = system: OVCAR-8
SK-MEL-28 = system: SK-MEL-28
SR = system: SR
M14 = system: M14
U-251 = system: U-251
SF-295 = system: SF-295
NCI-H460 = system: NCI-H460
NCI-H23 = system: NCI-H23
OVCAR-4 = system: OVCAR-4
SK-OV-3 = system: SK-OV-3
SK-MEL-2 = system: SK-MEL-2
HT-29 = system: HT-29

Structure (SMILES)	GI50 (TK-10)	GI50 (786-0)	GI50 (CCRF-CEM)	GI50 (T47D)	GI50 (DU-145)	GI50 (Malme-3M)	GI50 (LOX IMVI)	GI50 (HCT-116)	GI50 (OVCAR-8)	GI50 (SK-MEL-28)	GI50 (SR)	GI50 (M14)	GI50 (U-251)	GI50 (SF-295)	GI50 (NCI-H460)	GI50 (NCI-H23)	GI50 (OVCAR-4)	GI50 (SK-OV-3)	GI50 (SK-MEL-2)	GI50 (HT-29)
COc1ccc2o/c(=N/c3ccccc3)c(C(N)=O)cc2c1	> 49.2 µM (inactive)	> 57.8 µM (inactive)	> 100 µM (inactive)	> 100 µM (inactive)	> 100 µM (inactive)	> 100 µM (inactive)	> 100 µM (inactive)	> 69.8 µM (inactive)	> 67.5 µM (inactive)	> 100 µM (inactive)	> 100 µM (inactive)	> 100 µM (inactive)	> 79.1 µM (inactive)	74 µM (inactive)	> 100 µM (inactive)	> 58.1 µM (inactive)	> 100 µM (inactive)	39.2 µM (inactive)	> 100 µM (inactive)	–
COc1ccccc1NC(=S)Nc1cc(C)ccn1	> 100 µM (inactive)	> 100 µM (inactive)	> 100 µM (inactive)	> 100 µM (inactive)	> 100 µM (inactive)	> 100 µM (inactive)	> 100 µM (inactive)	> 100 µM (inactive)	> 100 µM (inactive)	> 100 µM (inactive)	> 100 µM (inactive)	> 100 µM (inactive)	> 100 µM (inactive)	> 100 µM (inactive)	> 100 µM (inactive)	–	> 100 µM (inactive)	> 100 µM (inactive)	> 100 µM (inactive)	> 100 µM (inactive)
CCOC(=O)C(NC(=O)CC)(Nc1ccc(S(=O)(=O)Nc2nc(C)cc(C)n2)cc1)C(F)(F)F (configuration not stated)	> 100 µM (inactive)	> 100 µM (inactive)	> 100 µM (inactive)	> 100 µM (inactive)	> 100 µM (inactive)	> 100 µM (inactive)	> 100 µM (inactive)	> 100 µM (inactive)	> 100 µM (inactive)	> 100 µM (inactive)	> 100 µM (inactive)	> 100 µM (inactive)	> 100 µM (inactive)	> 100 µM (inactive)	> 100 µM (inactive)	> 100 µM (inactive)	> 100 µM (inactive)	> 100 µM (inactive)	> 100 µM (inactive)	> 100 µM (inactive)
CC1(C)C(=O)C2(OS(=O)(=O)C(F)(F)F)CCC1C2 (configuration not stated)	> 100 µM (inactive)	> 100 µM (inactive)	> 100 µM (inactive)	> 100 µM (inactive)	> 100 µM (inactive)	> 100 µM (inactive)	> 100 µM (inactive)	> 100 µM (inactive)	> 100 µM (inactive)	> 100 µM (inactive)	1 µM (active)	> 100 µM (inactive)	> 100 µM (inactive)	> 100 µM (inactive)	> 100 µM (inactive)	> 100 µM (inactive)	> 100 µM (inactive)	> 100 µM (inactive)	> 100 µM (inactive)	> 100 µM (inactive)
N=c1oc2c(Br)cc(Br)cc2cc1C(=O)Nc1ccccn1	–	36.5 µM (inactive)	41.2 µM (inactive)	38.8 µM (inactive)	81.5 µM (inactive)	52.2 µM (inactive)	> 100 µM (inactive)	38.3 µM (inactive)	45.9 µM (inactive)	> 100 µM (inactive)	91 µM (inactive)	56 µM (inactive)	96.6 µM (inactive)	–	71.9 µM (inactive)	69.2 µM (inactive)	68.9 µM (inactive)	> 100 µM (inactive)	30.1 µM (inactive)	44.1 µM (inactive)
COC1(CC[C@@H](C)COC2OC(CO)C(O)C(O)C2O)O[C@H]2C[C@H]3[C@@H]4CC=C5C[C@@H](OC6OC(CO)C(OC7OC(C)C(O)C(O)C7O)C(O)C6OC6OC(C)C(O)C(O)C6O)CC[C@]5(C)[C@H]4CC[C@]3(C)[C@H]2[C@@H]1C (some centres not stated)	17.2 µM (inactive)	2.02 µM (inactive)	17.9 µM (inactive)	6.08 µM (inactive)	2.28 µM (inactive)	3.01 µM (inactive)	1.73 µM (inactive)	–	3.53 µM (inactive)	2.97 µM (inactive)	25.1 µM (inactive)	2.55 µM (inactive)	1.81 µM (inactive)	2.82 µM (inactive)	–	3.97 µM (inactive)	3.54 µM (inactive)	1.66 µM (inactive)	4.39 µM (inactive)	2.68 µM (inactive)
C=C1C(=O)OC2/C=C(\CO)CC/C=C(\CO)CC(OC(=O)C(C)C)C12 (configuration not stated)	3.94 µM (inactive)	5.52 µM (inactive)	2.99 µM (inactive)	4.72 µM (inactive)	12.7 µM (inactive)	2.08 µM (inactive)	13.5 µM (inactive)	7.4 µM (inactive)	20 µM (inactive)	6.27 µM (inactive)	4.79 µM (inactive)	7.53 µM (inactive)	18.1 µM (inactive)	21.3 µM (inactive)	20.9 µM (inactive)	19.3 µM (inactive)	19.4 µM (inactive)	27.2 µM (inactive)	16.5 µM (inactive)	14.6 µM (inactive)
CC(=O)c1c2c(cc3c1CCC3)CCC2	49 µM (inactive)	> 100 µM (inactive)	40.7 µM (inactive)	15.4 µM (inactive)	> 100 µM (inactive)	> 100 µM (inactive)	> 100 µM (inactive)	70.3 µM (inactive)	> 100 µM (inactive)	> 100 µM (inactive)	> 100 µM (inactive)	> 100 µM (inactive)	> 100 µM (inactive)	> 100 µM (inactive)	> 100 µM (inactive)	> 100 µM (inactive)	69.7 µM (inactive)	> 100 µM (inactive)	> 100 µM (inactive)	> 100 µM (inactive)
CNC(=O)O/N=C1\N(C)CN(c2ccccc2)C12CCN(CCCC(=O)c1ccc(F)cc1)CC2	79.4 µM (inactive)	75.5 µM (inactive)	99.3 µM (inactive)	> 100 µM (inactive)	> 100 µM (inactive)	32.7 µM (inactive)	31.1 µM (inactive)	33 µM (inactive)	> 100 µM (inactive)	> 100 µM (inactive)	39.3 µM (inactive)	16.9 µM (inactive)	> 100 µM (inactive)	> 100 µM (inactive)	44.1 µM (inactive)	> 100 µM (inactive)	27.6 µM (inactive)	> 100 µM (inactive)	60.8 µM (inactive)	29.1 µM (inactive)
CCOC(=O)c1nc2cc(C(F)(F)F)ccc2nc1Oc1ccc(C#N)cc1	> 100 µM (inactive)	> 100 µM (inactive)	70 µM (inactive)	55.7 µM (inactive)	> 100 µM (inactive)	> 100 µM (inactive)	71.8 µM (inactive)	16.8 µM (inactive)	> 100 µM (inactive)	> 100 µM (inactive)	60.7 µM (inactive)	> 100 µM (inactive)	> 100 µM (inactive)	> 100 µM (inactive)	> 100 µM (inactive)	–	> 100 µM (inactive)	–	> 100 µM (inactive)	–
CC(O)C(O)C(O)C(/C=N\Nc1ccccc1)=N/Nc1ccccc1 (configuration not stated)	12.6 µM (inactive)	14.2 µM (inactive)	18.5 µM (inactive)	6.21 µM (inactive)	15.1 µM (inactive)	20 µM (inactive)	4.58 µM (inactive)	15.3 µM (inactive)	13.2 µM (inactive)	16.6 µM (inactive)	17.3 µM (inactive)	13.3 µM (inactive)	13.9 µM (inactive)	11.6 µM (inactive)	10.7 µM (inactive)	11.9 µM (inactive)	–	15.6 µM (inactive)	8.63 µM (inactive)	15.9 µM (inactive)
Nc1ccc(-c2nc3cc(F)ccc3s2)cc1Cl	0.0357 µM (active)	25.8 µM (inactive)	> 22.9 µM (inactive)	0.0615 µM (active)	63.2 µM (inactive)	20.1 µM (inactive)	> 77.4 µM (inactive)	0.0782 µM (active)	38.6 µM (inactive)	> 85.5 µM (inactive)	0.0382 µM (active)	> 85.1 µM (inactive)	20 µM (inactive)	23.5 µM (inactive)	0.0364 µM (active)	–	17.1 µM (inactive)	19.1 µM (inactive)	41.1 µM (inactive)	0.692 µM (active)
CCCCc1c2c(c(C)c3c1C(=O)OC3)Oc1ccccc1O2	2.29 µM (inactive)	1.5 µM (inactive)	0.695 µM (active)	5.11 µM (inactive)	2.51 µM (inactive)	0.596 µM (active)	2.25 µM (inactive)	0.565 µM (active)	3.67 µM (inactive)	> 63.2 µM (inactive)	0.186 µM (active)	1.22 µM (inactive)	0.57 µM (active)	0.467 µM (active)	0.369 µM (active)	2.9 µM (inactive)	3.56 µM (inactive)	1.57 µM (inactive)	0.541 µM (active)	–
O=c1c(O)c(-c2cc(O)c(O)c(O)c2)oc2cc(O)cc(O)c12 [MYRICETIN]	> 100 µM (inactive)	20.1 µM (inactive)	64.6 µM (inactive)	> 100 µM (inactive)	> 100 µM (inactive)	> 100 µM (inactive)	13.6 µM (inactive)	–	17.9 µM (inactive)	> 100 µM (inactive)	40.7 µM (inactive)	32.1 µM (inactive)	18.7 µM (inactive)	20.3 µM (inactive)	20.4 µM (inactive)	18.4 µM (inactive)	16.3 µM (inactive)	> 100 µM (inactive)	> 100 µM (inactive)	20.3 µM (inactive)
